# Calls of active or inactive are those of the source. No cut-off for these calls is given here.
# How the values were obtained:
# Mus musculus [1] = test: Anticonvulsant activity in albino CF1 mouse assessed as protection against subcutaneous metrazole-induced seizures at 300 mg/kg, ip after 0.5 hrs; type: functional, organism-based; parameters: dose 300 mg/kg
# Mus musculus [2] = test: Neurotoxicity in albino CF1 mouse assessed as minimal motor impairment at 30 mg/kg, ip after 4 hrs by rotarod test; type: toxicity, organism-based; parameters: dose 30 mg/kg, route intraperitoneal; settings: in vivo
# Mus musculus [3] = test: Anticonvulsant activity in albino CF1 mouse assessed as protection against maximal electroshock-induced seizures at 30 mg/kg, ip after 4 hrs; type: functional, organism-based; parameters: dose 30 mg/kg
# Mus musculus [4] = test: Anticonvulsant activity in albino CF1 mouse assessed as protection against subcutaneous metrazole-induced seizures at 30 mg/kg, ip after 4 hrs; type: functional, organism-based; parameters: dose 30 mg/kg
# Mus musculus [5] = test: Anticonvulsant activity against maximal electroshock-induced seizures in ip dosed albino CF1 mouse assessed as minimum effective dose after 4 hrs; type: functional; settings: read-out: MED
# Mus musculus [6] = test: Neurotoxicity in albino CF1 mouse assessed as minimal motor impairment at 300 mg/kg, ip after 4 hrs by rotarod test; type: toxicity, organism-based; parameters: dose 300 mg/kg, route intraperitoneal; settings: in vivo
# Mus musculus [7] = test: Neurotoxicity in albino CF1 mouse assessed as minimal motor impairment at 30 mg/kg, ip after 0.5 hrs by rotarod test; type: toxicity, organism-based; parameters: dose 30 mg/kg, route intraperitoneal; settings: in vivo
# Mus musculus [8] = test: Anticonvulsant activity in albino CF1 mouse assessed as protection against subcutaneous metrazole-induced seizures at 30 mg/kg, ip after 0.5 hrs; type: functional, organism-based; parameters: dose 30 mg/kg
# Mus musculus [9] = test: Anticonvulsant activity against subcutaneous metrazole-induced seizures in ip dosed albino CF1 mouse assessed as minimum effective dose after 4 hrs; type: functional; settings: albino CF1, 4 h, read-out: MED
# Mus musculus [10] = test: Anticonvulsant activity in albino CF1 mouse assessed as protection against maximal electroshock-induced seizures at 100 mg/kg, ip after 0.5 hrs; type: functional, organism-based; parameters: dose 100 mg/kg
# Mus musculus [11] = test: Neurotoxicity in albino CF1 mouse assessed as minimal motor impairment at 30 to 300 mg/kg, ip after 0.5 hrs by rotarod test; settings: in vivo
# Mus musculus [12] = test: Anticonvulsant activity in albino CF1 mouse assessed as protection against subcutaneous metrazole-induced seizures at 100 mg/kg, ip after 0.5 hrs; type: functional, organism-based; parameters: dose 100 mg/kg
# Mus musculus [13] = test: Neurotoxicity in albino CF1 mouse assessed as minimal motor impairment at 30 to 300 mg/kg, po after 4 hrs by rotarod test; type: toxicity, organism-based; parameters: dose 30-300 mg/kg, route oral; settings: in vivo
# Mus musculus [14] = test: Anticonvulsant activity against maximal electroshock-induced seizures in ip dosed albino CF1 mouse assessed as minimum effective dose after 0.5 hrs; type: functional; settings: read-out: MED
# Mus musculus [15] = test: Anticonvulsant activity in albino CF1 mouse assessed as protection against subcutaneous metrazole-induced seizures at 300 mg/kg, ip after 4 hrs; type: functional, organism-based; parameters: dose 300 mg/kg
# Mus musculus [16] = test: Neurotoxicity in ip dosed albino CF1 mouse assessed as minimum dose required to cause toxicity after 0.5 hrs by rotarod test; type: organism-based; settings: in vivo
# Mus musculus [17] = test: Anticonvulsant activity against subcutaneous metrazole-induced seizures in ip dosed albino CF1 mouse assessed as minimum effective dose after 0.5 hrs; type: functional; settings: albino CF1, 0.5 h, read-out: MED
# Mus musculus [18] = test: Neurotoxicity in albino CF1 mouse assessed as minimal motor impairment at 100 mg/kg, ip after 0.5 hrs by rotarod test; type: toxicity, organism-based; parameters: dose 100 mg/kg, route intraperitoneal; settings: in vivo
# Mus musculus [19] = test: Neurotoxicity in albino CF1 mouse assessed as minimal motor impairment at 100 mg/kg, ip after 4 hrs by rotarod test; type: toxicity, organism-based; parameters: dose 100 mg/kg, route intraperitoneal; settings: in vivo
# Mus musculus [20] = test: Anticonvulsant activity in albino CF1 mouse assessed as protection against subcutaneous metrazole-induced seizures at 100 mg/kg, ip after 4 hrs; type: functional, organism-based; parameters: dose 100 mg/kg
# Mus musculus [21] = test: Anticonvulsant activity in albino CF1 mouse assessed as protection against maximal electroshock-induced seizures at 300 mg/kg, ip after 4 hrs; type: functional, organism-based; parameters: dose 300 mg/kg
# Mus musculus [22] = test: Neurotoxicity in ip dosed albino CF1 mouse assessed as minimum dose required to cause toxicity after 4 hrs by rotarod test; type: organism-based; settings: in vivo
# Mus musculus [23] = test: Anticonvulsant activity in albino CF1 mouse assessed as protection against maximal electroshock-induced seizures at 300 mg/kg, ip after 0.5 hrs; type: functional, organism-based; parameters: dose 300 mg/kg
# Mus musculus [24] = test: Neurotoxicity in albino CF1 mouse assessed as minimal motor impairment at 300 mg/kg, ip after 0.5 hrs by rotarod test; type: toxicity, organism-based; parameters: dose 300 mg/kg, route intraperitoneal; settings: in vivo
# Mus musculus [25] = test: Anticonvulsant activity in albino CF1 mouse assessed as protection against maximal electroshock-induced seizures at 100 mg/kg, ip after 4 hrs; type: functional, organism-based; parameters: dose 100 mg/kg
# Mus musculus [26] = test: Anticonvulsant activity in albino CF1 mouse assessed as protection against maximal electroshock-induced seizures at 30 mg/kg, ip after 0.5 hrs; type: functional, organism-based; parameters: dose 30 mg/kg
# Rattus norvegicus [27] = test: Anticonvulsant activity in albino Sprague-Dawley rat assessed as protection against maximal electroshock-induced seizures at 30 mg/kg, po after 0.25 hrs; type: functional, organism-based; parameters: dose 30 mg/kg
# Rattus norvegicus [28] = test: Anticonvulsant activity in albino Sprague-Dawley rat assessed as protection against maximal electroshock-induced seizures at 30 mg/kg, po after 4 hrs; type: functional, organism-based; parameters: dose 30 mg/kg
# Rattus norvegicus [29] = test: Anticonvulsant activity in albino Sprague-Dawley rat assessed as protection against maximal electroshock-induced seizures at 30 mg/kg, po after 1 hr; type: functional, organism-based; parameters: dose 30 mg/kg
# Rattus norvegicus [30] = test: Neurotoxicity in albino Sprague-Dawley rat assessed as minimal motor impairment at 30 mg/kg, po by rotarod test; type: toxicity, organism-based; parameters: dose 30 mg/kg, route oral; settings: in vivo
# Rattus norvegicus [31] = test: Anticonvulsant activity in albino Sprague-Dawley rat assessed as protection against maximal electroshock-induced seizures at 30 mg/kg, po after 0.5 hrs; type: functional, organism-based; parameters: dose 30 mg/kg
# Rattus norvegicus [32] = test: Anticonvulsant activity in albino Sprague-Dawley rat assessed as protection against maximal electroshock-induced seizures at 30 mg/kg, po after 2 hrs; type: functional, organism-based; parameters: dose 30 mg/kg
Compound,Activity (Mus musculus [1]),Activity (Mus musculus [2]),Activity (Mus musculus [3]),Activity (Mus musculus [4]),minimal effective dose (Mus musculus [5]),Activity (Mus musculus [6]),Activity (Mus musculus [7]),Activity (Mus musculus [8]),minimal effective dose (Mus musculus [9]),Activity (Mus musculus [11]),Activity (Mus musculus [12]),minimal effective dose (Mus musculus [14]),Activity (Mus musculus [15]),MED (Mus musculus [16]),minimal effective dose (Mus musculus [17]),Activity (Mus musculus [19]),Activity (Mus musculus [20]),Activity (Mus musculus [21]),MED (Mus musculus [22]),Activity (Mus musculus [23]),further results
FC(F)(F)c1cccc(-c2c[nH]c(-c3cccc(C(F)(F)F)c3)n2)c1,inactive,Non-toxic,inactive,inactive,100 mg/kg,Non-toxic,Non-toxic,inactive,> 300 mg/kg,Non-toxic,inactive,> 300 mg/kg,inactive,> 300 mg/kg,> 300 mg/kg,Non-toxic,inactive,Active,> 300 mg/kg,inactive,Activity (Mus musculus [10]): inactive; Activity (Mus musculus [13]): Non-toxic; Activity (Mus musculus [18]): Non-toxic; Activity (Mus musculus [24]): Non-toxic
FC(F)(F)c1cccc(-c2c[nH]c(-c3ccc(Cl)cc3)n2)c1,inactive,Non-toxic,inactive,inactive,> 300 mg/kg,Non-toxic,Non-toxic,inactive,> 300 mg/kg,Non-toxic,inactive,> 300 mg/kg,inactive,> 300 mg/kg,> 300 mg/kg,Non-toxic,inactive,inactive,> 300 mg/kg,inactive,Activity (Mus musculus [10]): inactive; Activity (Mus musculus [13]): Non-toxic; Activity (Mus musculus [25]): inactive; Activity (Mus musculus [18]): Non-toxic; Activity (Mus musculus [26]): inactive; Activity (Mus musculus [24]): Non-toxic
Clc1ccc(-c2nc(-c3ccccc3)c[nH]2)cc1,inactive,Non-toxic,inactive,inactive,> 300 mg/kg,Non-toxic,Non-toxic,inactive,> 300 mg/kg,Non-toxic,inactive,> 300 mg/kg,inactive,> 300 mg/kg,> 300 mg/kg,Non-toxic,inactive,inactive,> 300 mg/kg,inactive,Activity (Mus musculus [10]): inactive; Activity (Mus musculus [13]): Non-toxic; Activity (Mus musculus [25]): inactive; Activity (Mus musculus [18]): Non-toxic; Activity (Mus musculus [26]): inactive; Activity (Mus musculus [24]): Non-toxic
O=[N+]([O-])c1ccc(-c2c[nH]c(-c3ccccc3)n2)cc1,inactive,Non-toxic,inactive,inactive,100 mg/kg,Non-toxic,Non-toxic,inactive,> 300 mg/kg,Non-toxic,inactive,100 mg/kg,inactive,> 300 mg/kg,> 300 mg/kg,Non-toxic,inactive,Active,> 300 mg/kg,Active,Activity (Mus musculus [13]): Non-toxic; Activity (Mus musculus [25]): inactive; Activity (Mus musculus [18]): Non-toxic; Activity (Mus musculus [26]): inactive; Activity (Mus musculus [24]): Non-toxic
c1ccc(-c2c[nH]c(-c3cccnc3)n2)cc1,Active,Non-toxic,inactive,inactive,100 mg/kg,,Non-toxic,inactive,> 300 mg/kg,Non-toxic,Active,100 mg/kg,inactive,100 mg/kg,100 mg/kg,Non-toxic,inactive,Active,100 mg/kg,Active,Activity (Rattus norvegicus [27]): inactive; Activity (Rattus norvegicus [28]): inactive; Activity (Rattus norvegicus [29]): inactive; Activity (Rattus norvegicus [30]): Non-toxic; Activity (Mus musculus [10]): Active; Activity (Rattus norvegicus [31]): inactive; Activity (Mus musculus [25]): inactive; Activity (Rattus norvegicus [32]): inactive; Activity (Mus musculus [26]): inactive
O=[N+]([O-])c1ccc(-c2nc(-c3cccc(C(F)(F)F)c3)c[nH]2)cc1,inactive,Non-toxic,inactive,inactive,100 mg/kg,Non-toxic,Non-toxic,inactive,> 300 mg/kg,Non-toxic,inactive,> 300 mg/kg,inactive,> 300 mg/kg,> 300 mg/kg,Non-toxic,inactive,Active,> 300 mg/kg,inactive,Activity (Mus musculus [10]): inactive; Activity (Mus musculus [13]): Non-toxic; Activity (Mus musculus [25]): inactive; Activity (Mus musculus [18]): Non-toxic; Activity (Mus musculus [26]): inactive; Activity (Mus musculus [24]): Non-toxic
COc1cccc(-c2c[nH]c(-c3ccccc3)n2)c1,inactive,Non-toxic,inactive,inactive,> 300 mg/kg,Non-toxic,Non-toxic,inactive,> 300 mg/kg,Non-toxic,inactive,> 30 mg/kg,inactive,100 mg/kg,> 300 mg/kg,Non-toxic,inactive,inactive,> 300 mg/kg,Active,Activity (Rattus norvegicus [27]): inactive; Activity (Rattus norvegicus [28]): inactive; Activity (Rattus norvegicus [29]): inactive; Activity (Rattus norvegicus [30]): Non-toxic; Activity (Mus musculus [10]): Active; Activity (Mus musculus [13]): Non-toxic; Activity (Rattus norvegicus [31]): inactive; Activity (Rattus norvegicus [32]): inactive; Activity (Mus musculus [26]): inactive
